The values below come from US9758485B2, “Compounds for controlling arthropods” (priority 2013, dated 2017).

The nature of series [1]: logP determination by HPLC on a reversed-phase column (C18), EEC Directive 79/831 Annex V.A8. To be noted: for log P: HPLC on reversed-phase column (C18). Type of series: physicochemical.
A further series relates to Meloidogyne incognita. In words: Meloidogyne incognita test. Type of series: in vivo. The settings on record: application rate 20 ppm; formation of galls on lettuce roots after 14 days. The method, then:
Meloidogyne incognita Test
Solvent: 125.0 parts by weight of acetone
To produce an appropriate active ingredient formulation, 1 part by weight of active ingredient is mixed with the stated amount of solvent and the concentrate is diluted with water to the desired concentration.
Vessels are filled with sand, active ingredient solution, an egg/larvae suspension of the southern root-knot nematode (Meloidogyne incognita) and lettuce seeds. The lettuce seeds germinate and the plants develop. The galls develop on the roots.
After 14 days, the nematicidal efficacy in % is determined by the formation of galls. 100% means that no galls were found; 0% means that the number of galls on the treated plants corresponds to the untreated control.

In a further series the test system is Phaedon cochleariae. In words: Phaedon cochleariae - spray test. To be noted: Phaedon cochleariae, foliar, 168 h; application rate 100 g/ha; larvae on Chinese cabbage leaf discs; after 7 days; read-out: efficacy. It counts as in vivo. The method, then: Phaedon cochleariae—Spray Test
(§1) Solvent: 78.0 parts by weight of acetone and 1.5 parts by weight of dimethylformamide
(§2) Emulsifier: alkylaryl polyglycol ether
(§3) To produce an appropriate active ingredient formulation, 1 part by weight of active ingredient is dissolved using the specified parts by weight of solvent and made up with water containing an emulsifier concentration of 1000 ppm until the desired concentration is attained. To produce further test concentrations, the preparation is diluted with emulsifier-containing water.
Discs of Chinese cabbage leaves (Brassica pekinensis) are sprayed with an active ingredient formulation of the desired concentration and, after drying, populated with larvae of the mustard beetle (Phaedon cochleariae).
After 7 days, efficacy in % is determined. 100% means that all the beetle larvae have been killed; 0% means that no beetle larvae have been killed.

A further series deals with Lucilia cuprina. In words: Lucilia cuprina test. Type of series: in vivo. To be noted: Lucilia cuprina, 48 h; application rate 100 ppm; L1 larvae in minced horsemeat; kill after 2 days; read-out: efficacy. Summed up:
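About 20 L1 larvae placed on minced horsemeat treated with compound, formulated in DMSO and diluted with water to test concentration. Kill in % scored after 2 days (100% = all larvae dead, 0% = none).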

A further series deals with Tetranychus urticae. The series can be described thus: Tetranychus urticae - spray test, OP-resistant. Type of series: in vivo. The settings on record: foliar, 144 h, application rate 100 g/ha, bean leaf discs, after 6 days, read-out: efficacy. On the procedure: Tetranychus urticae—Spray Test, OP-Resistant
as §1, §2, §3
Discs of bean leaves (Phaseolus vulgaris) infested by all stages of the greenhouse red spider mite (Tetranychus urticae) are sprayed with an active ingredient formulation of the desired concentration.
After 6 days, efficacy in % is determined. 100% means that all the spider mites have been killed; 0% means that none of the spider mites have been killed.

The subject of series [2] is Boophilus microplus Parkhurst strain, SP-resistant. In words: Boophilus microplus - dip test. It counts as in vivo. The settings on record: application rate 100 ppm; dip of engorged adult female ticks; laying of fertile eggs, after 7 days. In a few lines:
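Adult engorged females of SP-resistant Parkhurst strain (8–10 per tube) fully immersed in compound diluted in water from a DMSO solution. Ticks then kept on filter discs in a climate-controlled room; efficacy scored from fertile egg laying at 7 days, with unclear eggs held about 42 days until hatch (100% = no fertile eggs).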

The next series concerns Rhipicephalus sanguineus. The series can be described thus: Rhipicephalus sanguineus - in vitro contact tests with adult brown dog ticks. The settings on record: application rate 5 μg/cm^2, after 48 h (dead or moribund). It counts as in vivo. In a few lines:
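Test compound was dissolved in acetone p.a. (9 mg in 1 ml, then diluted), and 250 μl were spread evenly over the inner surface of 25 ml test tubes on an orbital shaker at 30 rpm for 2 h. Once the solvent evaporated, 5-10 adult Rhipicephalus sanguineus ticks were sealed in, kept dark at room temperature, and after 48 h placed on a 45-50° C. hotplate to score dead or moribund ticks.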

The next series has as its system Spodoptera frugiperda. The series can be described thus: Spodoptera frugiperda - spray test. Type of series: in vivo. The settings on record: foliar, 168 h, application rate 100 g/ha, caterpillars on maize leaf discs, after 7 days, read-out: efficacy. The method, then: Spodoptera frugiperda—Spray Test
as §1, §2, §3
Leaf discs of maize (Zea mays) are sprayed with an active ingredient formulation of the desired concentration and, after drying, populated with caterpillars of the armyworm (Spodoptera frugiperda).
After 7 days, efficacy in % is determined. 100% means that all the caterpillars have been killed; 0% means that no caterpillars have been killed.

The next series deals with Boophilus microplus. In words: Boophilus microplus - injection test. It counts as in vivo. To be noted: Rhipicephalus microplus, 168 h; application rate 20 μg/animal; injected into engorged adult female ticks; laying of fertile eggs, after 7 days; read-out: efficacy. In a few lines:
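Scoring was by fertile egg laying 7 days after injection, holding doubtful eggs until larvae hatched at about 42 days; 100% = no fertile eggs, 0% = all eggs fertile. Groups of 5 engorged adult female cattle ticks were each injected abdominally with 1 μl of compound in DMSO.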

For series [3], the system named is Ctenocephalides felis. The series can be described thus: Ctenocephalides felis - oral test. It counts as in vivo. The settings on record: Ctenocephalides felis, po, 48 h; application rate 100 ppm in citrated cattle blood; adult fleas; kill after 2 days; read-out: efficacy. In a few lines: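 About 20 unfed adult cat fleas fed through a parafilm membrane on citrated cattle blood containing compound, dosed from a DMSO stock. Kill in % scored after 2 days; 100% means all fleas dead.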

Another series has as its system Musca domestica. The series can be described thus: Musca domestica test. To be noted: application rate 100 ppm; adult houseflies; kill after 2 days. It counts as in vivo. Summed up:
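Compound in DMSO, diluted with water, applied to a sugar-solution sponge; vessels hold 10 adult houseflies. Percent mortality scored after 2 days.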

Series [4] relates to Ctenocephalides felis. The series can be described thus: Ctenocephalides felis - in vitro contact tests with adult cat fleas. The settings on record: application rate 5 μg/cm^2 (=500 g/ha), after 48 h (dead or moribund). Type of series: in vivo. Summed up: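 Acetone solution coated on test-tube inner walls (900 ppm gives 5 μg/cm^2). After drying, 5-10 adult cat fleas added and kept horizontal at room temperature and ambient humidity. At 48 h fleas knocked down; motionless or uncoordinated ones counted dead/moribund, giving % efficacy.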

With `O=C(NC1CC1)c1cc(-c2cnn(-c3c(Cl)cc(C(F)(F)F)c(F)c3Cl)c2)ccc1Cl` [I-T3-184], the log P (commonly the decadic logarithm of the partition coefficient of the neutral form, usually between octanol and water) in [1] is on record as 3.6. For the same molecule, the efficacy in the series on Meloidogyne incognita was found to be 90%.
Take `N#CC1(NC(=O)c2cc(-c3cnn(-c4c(Cl)cc(C(F)(F)F)c(F)c4Cl)c3)ccc2Cl)CC1` [I-T3-185]: the “log P” value in [1] is listed as 3.6. Moreover, in the series on Meloidogyne incognita, the efficacy was determined as 90%.
Take `Cc1cc(C(F)(C(F)(F)F)C(F)(F)F)cc(C(F)(F)F)c1-c1cc(-c2ccc(Cl)c(C(=O)NC3(C#N)CC3)c2)on1` [I-T22-7, 2-chloro-N-(1-cyanocyclopropyl)-5-[3-[2-methyl-4-[1,2,2,2-tetrafluoro-1-(trifluoromethyl)ethyl]-6-(trifluoromethyl)phenyl]isoxazol-5-yl]benzamide]: the pest or weed control at 100 g/ha in the series on Phaedon cochleariae, in the series with Tetranychus urticae and in the series on Spodoptera frugiperda was 100% in each case. Besides, the pest or weed control at 100 ppm in the series on Lucilia cuprina and in the series with Ctenocephalides felis [3] was 100% each time. Moreover, in series [1] (reversed-phase HPLC column (C18), HPLC, reversed-phase C18, acetonitrile/water with formic acid, 55° C., read-out: logP), the chromatographic logP was 4.7. The efficacy (in series [2]; in the series on Rhipicephalus sanguineus; in the series with Musca domestica; in the series on Ctenocephalides felis [4]) was 100% throughout. In addition, in the series with Boophilus microplus, the pest or weed control at 0.02 mg came to 100%.
